Measured values taken from patent publication US10532084B2, “Chondrocyte extracellular matrix-derived peptide” (EYEBIO KOREA, priority 2016, dated 2020).
Entries after “also recorded” stand apart in the source; their conditions may differ.

Tests used:
[1] = test system: rabbit cornea burned with alkali; conditions: rabbit alkaline burn
Experimental: (§1) The rabbits were randomly divided into an alkaline burn group (n=5) and a peptide treated group (n=5). In the alkaline burn group, normal saline was administered 4 times daily and in the peptide-treated group, Hyp-[…] peptide of 10 mg/mL was administered 4 times daily, and the left eye was used as a control group.

CD31, FGF and VEGF = conditions: rabbit alkaline burn; 10 days treatment; immunostaining
Experimental: as §1
(§2) Tissue sections were cut into 6 μm thickness and used for immunohistochemical analysis.
(§3) First, tissue sections were fixed with 3.5% paraformaldehyde and permeated with 0.1% Triton X-100, inactivated 2% bovine serum albumin (BSA; all from Sigma, St. Louis, Mo.) and incubated overnight at 4° C. with anti-CD31(1:1,000; Abcam Inc., Cambridge, Mass.), anti-bFGF(1:1,000; Bioss Inc., Woburn, Mass.), anti-IL-1β, anti-IL-6(1:1,000; Cloud-Clone Corp., Houston, Tex.), anti-MMP-9, anti-ICMA-1, anti-TNFα, anti-macrophage/mononucleus (1:1,000; Abnova Crop., Taipei, Taiwan) and anti-VEGF-A (Abbiotec, San Diego, Calif.) primary antibody.
(§4) Thereafter, the secondary antibody was incubated for 45 minutes in the section and the immunological response was visualized with diaminobenzidine (DAB) chromogen, and the section was contrast-stained with Mayer's hematoxylin (Sigma) for 30 seconds at room temperature.
(§5) The dyed sections were photographed by a virtual microscope (NanoZoomer 2.0 RS, Hamamatsu, Japan).

[2] = test system: macrophages, TNFα, ICAM-1, IL-1β, IL-6 and MMP-9; conditions: rabbit alkaline burn; 10 days treatment; immunostaining
Experimental: as §1, §2, §3, §4, §5

[3] = test system: choroidal neovascularization (CNV); test: Laser-induced choroidal neovascularization (CNV), lesion size by retina-choroid flat-mount; type: in vivo, C57BL/6 mice; conditions: mouse, laser irradiation
Experimental: C57BL/6 mice were purchased from Orient Bio and the animal experiments was carried out in accordance with the guidelines approved by the University of Inje (No, 2013-053) and ARVO regarding animal use for eye and vision studies. 6-week-old C57BL/6 mice were treated with diode green laser (532 nm, 150 mW, 0.1 sec, […], photocoagulator) to damage the retinal optic nerve area. […] The above experiment for each experiment group was performed using both eyes of five mice each. […]
The mouse was anesthetized and injected with 25 mg/ml of FITC-dextran in […] of retro-orbital. After 30 minutes, the mouse was euthanized and the eyeball was extracted and fixed with 10% formalin and then, the cornea and lens were removed and flat mounted on the cover glass. The neovasculature stained with FITC-dextran was observed by fluorescence microscopy (Leica) and the lesion size was measured by Image J program. […]

[4] = test system: TNF-α, ICAM-1, VCAM-1, MMP-2 and MMP-9; conditions: 10 days of treatment after removal of dry stress
Experimental: NOD.B10.H2^b mice were purchased from Jackson Laboratory (Bar Harbor, Me., USA). Animal experiments were carried out in accordance with the guidelines approved by the University of Inje (No.; 2014-029) and ARVO regarding animal use for eye and vision research. NOD.B10.H2^b mice at 12-16 weeks old were exposed to 40-50% ambient humidity and ventilation using a fan for 18 hours a day as dry stress and subcutaneously injected with 0.5 mg/0.2 mL muscarinic receptor blocker. In addition, scopolamine hydrobromide (Sigma-Aldrich, St. Louis, Mo.) was injected alternately to the […] hips four times a day for 10 days at 9 am, […].
After 10 days of ocular dry stress, the scopolamine injection was stopped, and switched to a normal humidity and temperature environment and the dry stress was removed, 10 mg/ml Hyp-[…] and collagen were dissolved in normal saline to administer 5 μL each 5 times a day for 10 days, and normal saline and 0.1% HA were administered to the eyeball 5 times a day for 10 days. Three mice were used in each of the six experimental groups using both eyes of the mice and all experiments were repeated.

hydroxy proline-GQDGLAGPK [Hyp-GQDGLAGPK]
corneal neovascularization in H&E stained tissue ([1]; 10 days treatment): neovascularization was significantly improved
histological changes of the cornea (epithelial proliferation, inflammatory cell invasion, edema, neovascularization) ([1]; 10 days treatment, H&E): showed an advanced improvement effect
corneal thickness ([1]; after 10 days of peptide treatment, normal 526.6, alkaline burn 960.6): 550.0 μm
expression of CD31, FGF and VEGF in epithelium, subepithelium and matrix (CD31, FGF and VEGF): significant decreases
expression of MMP-9 in the cornea [2]: inhibited
expression of inflammatory factors TNFα, IL-1β, IL-6 and ICAM-1 [2]: decreased
expression of macrophages in the cornea [2]: effectively inhibited
CNV lesions ([3]; 2 μg intraocular injection for 5 days, listed as CPII): reduced; also recorded: decreased
CNV lesion size vs control group ([3]; 5 μg intraocularly for 5 consecutive days, 14 days after laser, FITC-dextran flat-mount): significantly decreased
expression of inflammation-related factors in the lacrimal gland compared with CsA, DQS and HA treated mice [4]: significantly inhibited
expression of inflammation-related factors (TNF-α, ICAM-1, VCAM-1, MMP-2, MMP-9) in the lacrimal gland ([4]; immunostaining): markedly reduced
